Results as given in ChEMBL document CHEMBL3301472, “MMV Malaria Box HIV and cytotoxicity screening”.

How the values were obtained:
[1] = MMV: MTT Cytotoxicity Assay Day 7 pi of Assay #10 (NO washout), U87-CD4-CCR5 cells, % cell death @ 5mM compound; assay type: toxicity, cell-based; conditions: human, u87-cd4-ccr5, 5000 µM
[2] = MMV: MTT Cytotoxicity Assay Day 3 pi, U87-CD4-CCR5 cells, % cell death @ 5mM compound; assay type: toxicity, cell-based; conditions: human, u87-cd4-ccr5, 5000 µM
[3] = test system: Human immunodeficiency virus 1; test: MMV: HIV JRFL CCR5-tropic replication-competent virus, virus & compound washed out Day 1 pi, P24 ELISA Day 7 pi, U87-CD4-CCR5, % inhibition at 5 mM compound; assay type: functional; set-up: dose or concentration left out as unconfirmed; conditions: Human immunodeficiency virus 1, JR-FL
[4] = MMV: MTT Cytotoxicity Assay Day 3 pi, U87-CD4-CXCR4 cells, % cell death @ 5mM compound; assay type: toxicity, cell-based; conditions: human, u87-cd4-cxcr4, 5000 µM
[5] = MMV: MTT Cytotoxicity Assay Day 7 pi of Assay #11 (NO washout), U87-CD4-CXCR4 cells, % cell death @ 5mM compound; assay type: toxicity, cell-based; conditions: human, u87-cd4-cxcr4, 5000 µM
[6] = MMV: MTT Cytotoxicity Assay Day 7 pi of Assay #7 (compound washed out Day 1 pi), U87-CD4-CXCR4 cells, % cell death @ 5mM compound; assay type: toxicity, cell-based; conditions: human, u87-cd4-cxcr4, 5000 µM
[7] = MMV: MTT Cytotoxicity Assay Day 7 pi of Assay #6 (compound washed out Day 1 pi), U87-CD4-CCR5 cells, % cell death @ 5mM compound; assay type: toxicity, cell-based; conditions: human, u87-cd4-ccr5, 5000 µM

Row | SMILES | % Cell Death [1] | % Cell Death [2] | inhibition [3] [%] | % Cell Death [4] | % Cell Death [5] | % Cell Death [6] | % Cell Death [7]
1 | Cc1ccc(-c2cc(C(=O)Nc3ccc(S(=O)(=O)N4CCCCC4)cc3)[nH]n2)c(O)c1 | 10 | -5 | 6 | 11 | 16 | -29 | 18
2 | COc1cc2cc(C(=O)Nc3ccccc3)c(N)nc2cc1OC | 95 | 75 | 9 | 43 | 106 | 51 | 0
3 | COc1ccc(-c2nc(NC(=O)CS(=O)(=O)c3ccc(F)cc3)sc2C)cc1 | 10 | 41 | -1 | 29 | 71 | 9 | -7
4 | CCC(=O)Nc1nnc(Cc2ccc(OC)c(OC)c2)s1 | 9 | 17 | -1 | 21 | -23 | -14 | -1
5 | Cc1cccc(Nc2nc(N)c3ccccc3n2)c1.Cl | 43 | 7 | 5 | 43 | 71 | -15 | 28
6 | Cc1ccc(CSCc2ccc(C(=O)NC3CC3)o2)cc1 | -6 | 23 | 2 | 12 | -2 | -23 | 18
7 | Cc1sc2ncnc(Sc3nc4ccccc4[nH]3)c2c1C | 27 | 16 | -1 | 18 | -15 | -5 | -6
8 | Cl.Clc1cc(Br)ccc1-c1ccc(CNCC2CCNCC2)o1 | 0 | 15 | 4 | 27 | -60 | 4 | -9
9 | C=CC12CCN(CC1)C(C(O)c1ccnc3ccc(OC)cc13)C2.Cl (centres undefined) | 27 | -14 | -2 | 27 | -24 | -23 | -12
10 | CN(C)c1ccc(N2C(N)=NC(N)=NC2(C)C)cc1 | 4 | -12 | 1 | 21 | 21 | 12 | 14
11 | CC(=O)c1ccc(NC(=O)CSc2nc(-c3ccccc3Cl)ns2)cc1 | 41 | 57 | 7 | 51 | -33 | 8 | 7
12 | CCOc1cccc2sc(N(Cc3cccnc3)C(=O)C3CCCCC3)nc12 | 65 | 2 | 4 | 9 | 52 | 8 | 34
13 | O=C(NCc1ccco1)C1CCN(S(=O)(=O)c2ccc(Cl)cc2)CC1 | 18 | 22 | 1 | 12 | 23 | -15 | 37
14 | COc1ccc(N2CCN(C(CNC(=O)C3CCCCC3)c3ccc4c(c3)OCO4)CC2)cc1 (centres undefined) | 38 | 17 | 10 | 63 | 71 | 6 | 25
15 | O=C(NCC(c1ccsc1)N1CCCCCC1)c1ccc(C(F)(F)F)cc1 (centres undefined) | 19 | 10 | 1 | 23 | 12 | -26 | 12
16 | COCCNC(=O)c1ccc(OC2CCN(Cc3ccc(F)c(F)c3)CC2)c(Cl)c1 | 15 | 31 | 9 | 4 | -22 | -5 | 20
17 | Cc1cc(NC(=O)c2ccc(-c3ccccc3)cc2)no1 | 32 | -16 | 4 | 43 | -1 | -27 | -24
18 | COc1ccc(Nc2nc(NCc3ccccc3)c3ccccc3n2)cc1 | 41 | 18 | 2 | 28 | -24 | -30 | 21
19 | c1ccc2c(NCCc3c[nH]c4ccccc34)c3ccccc3nc2c1 | 20 | 64 | 5 | 62 | 42 | -4 | 29
20 | CCn1c(SCC(=O)Nc2cc(C(F)(F)F)ccc2Cl)nc2ccccc2c1=O | 19 | -1 | 8 | 81 | 17 | -27 | 23
21 | Cc1ccc(-c2nc3ccccc3o2)cc1NCc1cc(Cc2ccccc2)ccc1O | 13 | 27 | 8 | 15 | 52 | -11 | -7
22 | CN1CCN(c2ncnc3c2[nH]c2ccc(Cl)cc23)CC1 | 31 | -11 | 10 | 27 | 1 | -25 | 29
23 | CN(C)c1ccc(-c2nc3cc(N)ccc3[nH]2)cc1 | 2 | 22 | 0 | 19 | -20 | -21 | -1
24 | CC(O)(c1ccc(Cl)cc1)C(CN1CCCCC1)c1ccccc1.Cl (centres undefined) | 19 | -11 | 3 | 3 | -5 | -24 | 24
25 | CN1CCN(c2ccc(Nc3c4ccccc4nc4ccccc34)cc2)CC1 | 19 | 11 | 6 | 22 | -32 | -14 | 22
26 | O=c1nc(C=Cc2ccc(Cl)cc2)oc2ccccc12 | 26 | 50 | 1 | 20 | -47 | -17 | 7
27 | CCOC(=O)C1=C(C)N=c2sc(=Cc3cc(Cl)ccc3O)c(=O)n2C1c1ccc(OC)cc1 (centres undefined) | 11 | -27 | 1 | 15 | -46 | -6 | 10
